Results on five compounds are retold here after patent US11291683B2, “Bilayer tablets of B vitamins and process for preparing the same” (Access Business Group International LLC, priority 2016, dated 2022).

The conditions of data set [1]: cited from earlier work.
Data set [2] can be described thus: Dissolution of bilayer time release multi-B vitamin tablets, USP Apparatus 2 (paddle), HPLC. It is filed as physicochemical. Here is the method: To investigate the effect of basic yeast on the dissolution profile of folic acid from vitamin B time release tablet, five formulas (Table 2) with different amounts of yeast were tested. The amount of yeast in the modified release layer was kept constant at 30 mg and included at least 15% hydroxypropyl methylcellulose (which acts as a controlled-release polymer).
Dissolution testing was performed using a qualified Sotax dissolution tester operated as USP Apparatus 2 (paddle) at 75 rpm and at 37±0.5° C. The media used for dissolution was different for different B vitamins and was selected to minimize degradation of these vitamins for the length of the study i.e. 8 hours. Each dissolution test was performed with 6 tablets. Sample aliquots were collected at 2, 4, 6, and 8 hour and filtered through 0.45-μm Millex-HV syringe filters, and analyzed by HPLC for dissolution samples.

Data set [3] in a line: USP <711> in vitro dissolution of Nutrilite Vitamin B formulation NF6853. It is filed as physicochemical. An excerpt:
The USP requirement for instant release vitamins is for not less than 75% of label claim to be released within one hour.

With `Cc1ncc(CO)c(CO)c1O` [Pyridoxine (B6), pyridoxine], the “Solubility in Water (Per 100 ml water)” value in data set [1] is 30.8 g per 100 ml water.

For the compound `Nc1nc2ncc(CNc3ccc(C(=O)N[C@@H](CCC(=O)O)C(=O)O)cc3)nc2c(=O)[nH]1` [Folic Acid, folic acid], in data set [1], the “Solubility in Water (Per 100 ml water)” value is given as 0.016 g per 100 ml water.

Turning to `Cc1cc2nc3c(=O)[nH]c(=O)nc-3n(C[C@H](O)[C@H](O)[C@H](O)CO)c2cc1C` [Riboflavin (B2), riboflavin], the “release from the immediate release layer, % of the label claim” value in data set [2] (bi-layer tablet, immediate release layer) is given as “around 104%”. Also, the “release of riboflavin (B2) within an hour” value in data set [3] (in vitro dissolution, meets USP requirement of not less than 75% of label claim within one hour) is “complete release”. Besides, the “% release (input)” value in data set [3] (instant release layer of NF6853, 1 hour, cumulative release based on input) is reported as 77.12%. The “% release (LC)” value in data set [3] (instant release layer of NF6853, 1 hour, cumulative release based on label claim) was found to be 104%. The “Solubility in Water (Per 100 ml water)” value in data set [1] is listed as 0.010 g per 100 ml water.

As for `O=C(O)CCCC[C@@H]1SC[C@@H]2NC(=O)N[C@@H]21` [Biotin, biotin], in data set [2] (predicted from release of folic acid and thiamine and solubility order, biotin was not analyzed), the “predicted release profile from modified release matrix” value is recorded as “intermediate release profile”. Moreover, the “Solubility in Water (Per 100 ml water)” value in data set [1] is on record as 0.022 g per 100 ml water.

Consider `NC(=O)c1cccnc1` [Niacinamide (B3), niacinamide], for which, in data set [1], the “Solubility in Water (Per 100 ml water)” value is 69.1 g per 100 ml water.
